Experiments:
[1] = tested on: human lung cancer strain NCI-H441;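 also: cell proliferation inhibition after four days measured by CellTiter-Glo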
[2] = molecular target: GDP-bound HRAS wild-type protein (Homo sapiens, UniProt P01112); assay: Binding to HRAS by surface plasmon resonance (SPR), Single Cycle Kinetics; conditions: SPR KD ratio HRAS/KRAS, class symbols
[3] = molecular target: GDP-bound KRAS wild-type protein (Homo sapiens, UniProt P01116); assay: Binding to KRAS by surface plasmon resonance (SPR), Single Cycle Kinetics; conditions: SPR Single Cycle Kinetics, GDP-bound KRAS wild-type protein, 1:1 binding model; read-out: KRAS KD
[4] = molecular target: GDP-bound NRAS wild-type protein (Homo sapiens, UniProt P01111); assay: Binding to NRAS by surface plasmon resonance (SPR), Single Cycle Kinetics; conditions: SPR KD ratio NRAS/KRAS, class symbols
GDP-bound NRAS wild-type protein, sequence (P01111 whole entry): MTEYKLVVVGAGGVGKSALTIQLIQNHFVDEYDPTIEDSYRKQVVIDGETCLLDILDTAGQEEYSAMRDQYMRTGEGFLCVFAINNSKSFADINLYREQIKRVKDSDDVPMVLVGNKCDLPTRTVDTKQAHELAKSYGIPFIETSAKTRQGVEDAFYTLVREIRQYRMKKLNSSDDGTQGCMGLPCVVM

GDP-bound KRAS wild-type protein, sequence (P01116 whole entry): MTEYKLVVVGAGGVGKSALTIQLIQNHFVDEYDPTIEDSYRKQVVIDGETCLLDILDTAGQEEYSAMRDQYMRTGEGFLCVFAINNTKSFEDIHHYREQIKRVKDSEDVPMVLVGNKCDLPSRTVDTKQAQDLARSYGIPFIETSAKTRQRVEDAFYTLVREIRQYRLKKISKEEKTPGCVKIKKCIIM
GDP-bound HRAS wild-type protein, sequence (P01112 whole entry): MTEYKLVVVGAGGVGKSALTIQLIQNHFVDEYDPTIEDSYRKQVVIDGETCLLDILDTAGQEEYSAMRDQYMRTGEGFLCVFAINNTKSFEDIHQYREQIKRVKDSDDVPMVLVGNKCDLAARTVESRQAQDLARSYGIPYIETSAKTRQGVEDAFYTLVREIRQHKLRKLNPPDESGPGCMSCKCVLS

Row | SMILES | IC50 [1] [nM] | Kd [3] [nM] | HRAS/KRAS (ratio of KD value with respect to GDP-bound HRAS wild-type protein to KD value with respect to KRAS) [2] | NRAS/KRAS (ratio of KD value with respect to GDP-bound NRAS wild-type protein to KD value with respect to KRAS) [4]
1 | CCC(CC)[C@H]1C(=O)N(C)[C@H](C(=O)N(C)C)CC(=O)N(C)[C@@H](COC)C(=O)N[C@@H]([C@@H](C)CC)C(=O)N(C2CC2)CC(=O)N(C)[C@H]2C/C=C\CCN(C2=O)[C@@H](CC2CCC(F)(F)CC2)C(=O)N(C)CC(=O)N[C@@H](CCc2ccc(Cl)c(Cl)c2)C(=O)N2C[C@H](OC(C)C)C[C@H]2C(=O)NC2(CC(C)(C)C2)C(=O)N1C [PP2525] | 142 | 3.8 | A (a compound having 10 or more and less than 20 is denoted as A) | AA (a compound having 20 or more is denoted as AA)
2 | C#CCN1CC(=O)N(C)[C@H]2C/C=C\CCN(C2=O)[C@@H](Cc2ccc(C)cc2)C(=O)N(C)CC(=O)N[C@@H](CCc2ccc(C(F)(F)F)c(Cl)c2)C(=O)N2C[C@H](OCC)C[C@H]2C(=O)NC2(CC(C)(C)C2)C(=O)N(C)[C@@H](C2CCCC2)C(=O)N(C)[C@H](C(=O)N(C)C)CC(=O)N(C)[C@@H](CCC)C(=O)N[C@@H](CC(C)C)C1=O [PP2526] | 54.5 | 4 | B (a compound having 3 or more and less than 10 is denoted as B) | A (a compound having 10 or more and less than 20 is denoted as A)
3 | CCC[C@H]1C(=O)N[C@@H]([C@@H](C)CC)C(=O)N(C2CC2)CC(=O)N(C)[C@H]2C/C=C\CCN(C2=O)[C@@H](Cc2ccc(C(F)F)cc2)C(=O)N(C)CC(=O)N[C@@H](CCc2cc(F)c(C(F)(F)F)c(F)c2)C(=O)N2C[C@H](OCC)C[C@H]2C(=O)NC2(CC(C)(C)C2)C(=O)N(C)[C@@H](C(CC)CC)C(=O)N(C)[C@H](C(=O)N(C)C)CC(=O)N1C [PP2527] | 31 | 0.65 | A (a compound having 10 or more and less than 20 is denoted as A) | AA (a compound having 20 or more is denoted as AA)
4 | CCC[C@H]1C(=O)N[C@@H](CC(C)C)C(=O)N(CC)CC(=O)N(C)[C@H]2C/C=C\CCN(C2=O)[C@@H](Cc2ccc(C)cc2)C(=O)N(C)CC(=O)N[C@@H](CCc2ccc(C(F)(F)F)c(Cl)c2)C(=O)N2C[C@H](OCC)C[C@H]2C(=O)NC2(CC(C)(C)C2)C(=O)N(C)[C@@H](C2CCCC2)C(=O)N(C)[C@H](C(=O)N(C)C)CC(=O)N1C [PP2528] | 207 | 4.6 | B (a compound having 3 or more and less than 10 is denoted as B) | A (a compound having 10 or more and less than 20 is denoted as A)
5 | CCC[C@H]1C(=O)N[C@@H]([C@@H](C)CC)C(=O)N(C)CC(=O)N(C)[C@H]2C/C=C\CCN(C2=O)[C@@H](Cc2ccc(C(F)F)cc2)C(=O)N(C)CC(=O)N[C@@H](CCc2ccc(Cl)c(Cl)c2)C(=O)N2C[C@H](OCC)C[C@H]2C(=O)NC2(CC(C)(C)C2)C(=O)N(C)[C@@H](C(CC)CC)C(=O)N(C)[C@H](C(=O)N(C)C)CC(=O)N1C [PP2531] | 16.3 | 0.51 | A (a compound having 10 or more and less than 20 is denoted as A) | AA (a compound having 20 or more is denoted as AA)

More lines, main results first:

Row | IC50 [1] [nM] | Kd [3] [nM] | SMILES | HRAS/KRAS (ratio of KD value with respect to GDP-bound HRAS wild-type protein to KD value with respect to KRAS) [2] | NRAS/KRAS (ratio of KD value with respect to GDP-bound NRAS wild-type protein to KD value with respect to KRAS) [4]
6 | 64 | 0.77 | CCC[C@H]1C(=O)N[C@@H]([C@@H](C)CC)C(=O)N(C2CC2)CC(=O)N(C)[C@H]2C/C=C\CCN(C2=O)[C@@H](Cc2ccc(C(F)F)cc2)C(=O)N(C)CC(=O)N[C@@H](CCc2cc(F)c(C(F)(F)F)c(F)c2)C(=O)N2C[C@H](OC(C)C)C[C@H]2C(=O)NC2(CC(C)(C)C2)C(=O)N(C)[C@@H](C(CC)CC)C(=O)N(C)[C@H](C(=O)N(C)C)CC(=O)N1C [PP2529] | A (a compound having 10 or more and less than 20 is denoted as A) | AA (a compound having 20 or more is denoted as AA)
7 | 144 | 4.1 | CCC[C@H]1C(=O)N[C@@H](CC(C)C)C(=O)N(C2CC2)CC(=O)N(C)[C@H]2C/C=C\CCN(C2=O)[C@@H](Cc2ccc(C)cc2)C(=O)N(C)CC(=O)N[C@@H](CCc2cc(F)c(C(F)(F)F)c(F)c2)C(=O)N2C[C@H](OCC)C[C@H]2C(=O)NC2(CCC2)C(=O)N(C)[C@@H](C2CCCC2)C(=O)N(C)[C@H](C(=O)N(C)C)CC(=O)N1C [PP2532] | B (a compound having 3 or more and less than 10 is denoted as B) | A (a compound having 10 or more and less than 20 is denoted as A)
